From PubChem BioAssay (NCI)
“And” between values parts separate entries of the source, which are not always exact repeats. Equal entries are not always repeated.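 Following 48 hours of exposure in 96-well plates, responses at five concentrations were used to interpolate endpoints linearly. GI50 = concentration required for 50% inhibition of growth. At the TGI there is no net growth.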

Each molecule was assayed on OVCAR-5 ovarian (assay: NCI anticancer screen, dose series, 48 h).

With COc1ccc(CC2c3c(cc(OC)c(OC)c3OC)CCN2C)cc1OC (centres undefined) the TGI was over 100 µM.

The molecules below were run on K-562 leukemia (assay: NCI anticancer screen, dose series, 48 h).

Going from CC12CCC3C(CCC4CC(OC(=O)Cc5ccc(N(CCCl)CCCl)cc5)CCC43C)C1CCC(=O)N2 (centres undefined) to COc1ccc(/C=C2\C[C@H]3[C@@H]4CCC5=C/C(=N/O)CC[C@]5(C)[C@H]4CC[C@]3(C)\C2=N\O)cc1OC, the TGI rises from 35.3 µM to over 100 µM.

CCN(CC)CCCNC(=O)c1ccc([N+](=O)[O-])cc1O and CCCCn1cnc2c(c(CC#N)nn2-c2ccccc2)c1=N cannot be ordered by TGI: over 100 µM for the first, over 100 µM for the second.

CN(Cc1ccccc1)c1cc(=O)n(C)c(=O)[nH]1 and CC1CN=C(N(C(=O)Nc2ccc(F)c(Cl)c2)c2ccccc2)S1 (centres undefined) cannot be ordered by TGI: over 100 µM for the first, over 100 µM for the second.

COc1ccc(-c2c3c([nH]c(=S)c2C#N)CC(C)(C)CC3=O)cc1 and CC(=O)Oc1cc(C(F)(F)F)ccc1C(=O)OC1(C)OC(=O)c2ccc(C(F)(F)F)cc2O1 (centres undefined) cannot be ordered by TGI: over 100 µM for the first, over 100 µM for the second.

Cc1cn([C@@H]2C[C@H](CO)[C@@H](O)C2)c(=O)[nH]c1=O and O=c1ccn(C2OC(CO)C(P(=O)(O)O)C2O)c(=O)[nH]1 (centres undefined) cannot be ordered by TGI: over 100 µM for the first, over 100 µM for the second.

Going from C=Cc1ccc(C)[n+](C[Si](C)(C)O[Si](C)(C)C[n+]2cc(C=C)ccc2C)c1 to Clc1ccc(CSCCc2ccncc2)cc1Cl, the TGI falls from over 100 µM to 51 µM.

O=c1[nH]cnc(NC2C=C(CO)C(O)C2O)c1[N+](=O)[O-] (centres undefined) and CC1(C)C2CC(=O)C1(C)C(O)C2Br (centres undefined) cannot be ordered by TGI: over 100 µM for the first, over 100 µM for the second.

Going from O=C(NC(COC(=O)C(Cc1ccccc1)NC(=O)c1ccccc1)Cc1ccccc1)c1ccccc1 (centres undefined) to O=C(Nc1ccccc1F)c1cc2ccc(O)cc2oc1=Nc1ccccc1F, the TGI falls from over 50 µM to 7.64 µM.

CC(=O)OCC1OC(n2cc(I)c(=O)[nH]c2=O)C(OC(C)=O)C(OC(C)=O)C1OC(C)=O (centres undefined) and CCC1=CC2CN3Cn4c(c(COCc5c6n(c7ccccc57)CN5CC7C=C(CC)C5C6(C(=O)OC)C7)c5ccccc54)C(C(=O)OC)(C2)C13 cannot be ordered by TGI: over 100 µM for the first, over 100 µM for the second.

First: O=C1NCCS(=O)(=O)N[C@@H](CC2=CC=CCC2)C(=O)N2CCCC12 (some centres undefined)
Second: CCN1CCCC(NCc2c3ccccc3c(CNC3CCCN(CC)C3)c3ccccc23)C1 (centres undefined)
The TGI of the first is higher: over 100 µM for the first, 42.6 µM for the second.

N/C(=N\S(=O)(=O)c1c(C(F)(F)F)cccc1C(F)(F)F)Nc1ccc(Cl)cc1 and Nc1nc(N)c(N=O)c(Nc2ccc(Br)cc2)n1 cannot be ordered by TGI: over 100 µM for the first, over 100 µM for the second.

CC(C)(C)OC(=O)NCCC(N)=S and COc1c(O)c2c3c(c(C)cc(O)c3c1O)C(=O)C(O)(C(C)(C)C(C)=O)C2=O (centres undefined) cannot be ordered by TGI: over 100 µM for the first, over 100 µM for the second.

COc1ccc(CC2c3c(cc(OC)c(OC)c3OC)CCN2C)cc1OC (centres undefined) showed a TGI of over 100 µM.

For COc1c(O)c2c3c(c(C)cc(O)c3c1O)C(=O)C(O)(C(C)(C)C(C)=O)C2=O (centres undefined), the GI50 was 34.4 µM and > 100 µM.

The molecules below were run on NCI-H460 lung (assay: NCI anticancer screen, dose series, 48 h).

Cn1ccnc1C(O)(c1nccn1C)c1nccn1C and CN(Cc1ccccc1)c1cc(=O)n(C)c(=O)[nH]1 cannot be ordered by TGI: over 100 µM for the first, over 100 µM for the second.

Compared with CC12CCC3C(CCC4CC(OC(=O)Cc5ccc(N(CCCl)CCCl)cc5)CCC43C)C1CCC(=O)N2 (centres undefined), COc1ccc(/C=C2\C[C@H]3[C@@H]4CCC5=C/C(=N/O)CC[C@]5(C)[C@H]4CC[C@]3(C)\C2=N\O)cc1OC is higher in TGI: 22.4 µM for the first, over 100 µM for the second.

CCN(CC)CCCNC(=O)c1ccc([N+](=O)[O-])cc1O and CCCCn1cnc2c(c(CC#N)nn2-c2ccccc2)c1=N cannot be ordered by TGI: over 100 µM for the first, over 100 µM for the second.

COc1ccc(-c2c3c([nH]c(=S)c2C#N)CC(C)(C)CC3=O)cc1 and CC(=O)Oc1cc(C(F)(F)F)ccc1C(=O)OC1(C)OC(=O)c2ccc(C(F)(F)F)cc2O1 (centres undefined) cannot be ordered by TGI: over 100 µM for the first, over 100 µM for the second.

Cc1cn([C@@H]2C[C@H](CO)[C@@H](O)C2)c(=O)[nH]c1=O and CC(=O)OCC1OC(n2cc(I)c(=O)[nH]c2=O)C(OC(C)=O)C(OC(C)=O)C1OC(C)=O (centres undefined) cannot be ordered by TGI: over 100 µM for the first, over 100 µM for the second.

Going from CC1CN=C(N(C(=O)Nc2ccc(F)c(Cl)c2)c2ccccc2)S1 (centres undefined) to O=C(Nc1ccccc1F)c1cc2ccc(O)cc2oc1=Nc1ccccc1F, the TGI falls from 84.1 µM to 6.18 µM (14-fold).

C=Cc1ccc(C)[n+](C[Si](C)(C)O[Si](C)(C)C[n+]2cc(C=C)ccc2C)c1 and Clc1ccc(CSCCc2ccncc2)cc1Cl cannot be ordered by TGI: over 100 µM for the first, over 100 µM for the second.

O=c1[nH]cnc(NC2C=C(CO)C(O)C2O)c1[N+](=O)[O-] (centres undefined) and CC1(C)C2CC(=O)C1(C)C(O)C2Br (centres undefined) cannot be ordered by TGI: over 58.2 µM for the first, over 100 µM for the second.

O=C(NC(COC(=O)C(Cc1ccccc1)NC(=O)c1ccccc1)Cc1ccccc1)c1ccccc1 (centres undefined) and CC(C(=O)N1C(=O)N(C(=O)C(C)C(O)c2ccccc2)C2CCCCC21)C(O)c1ccccc1 (centres undefined) cannot be ordered by TGI: over 50 µM for the first, over 100 µM for the second.

First: O=C1NCCS(=O)(=O)N[C@@H](CC2=CC=CCC2)C(=O)N2CCCC12 (some centres undefined)
Second: C[C@]12CC[C@@H]3c4ccc(O)cc4CC[C@H]3[C@@H]1C/C(=C\c1ccncc1)[C@@H]2O
The TGI of the first is higher: over 100 µM for the first, 68.2 µM for the second.

CC(C)=CCC/C(C)=C/COC(C)(C)C1=CCC(C)CC1 (centres undefined) (tested in a mixture with another compound) and CC(C)(C)OC(=O)NCCC(N)=S cannot be ordered by TGI: over 100 µM for the first, over 100 µM for the second.

N/C(=N\S(=O)(=O)c1c(C(F)(F)F)cccc1C(F)(F)F)Nc1ccc(Cl)cc1 and Nc1nc(N)c(N=O)c(Nc2ccc(Br)cc2)n1 cannot be ordered by TGI: over 100 µM for the first, over 100 µM for the second.

Going from CCN1CCCC(NCc2c3ccccc3c(CNC3CCCN(CC)C3)c3ccccc23)C1 (centres undefined) to COc1c(O)c2c3c(c(C)cc(O)c3c1O)C(=O)C(O)(C(C)(C)C(C)=O)C2=O (centres undefined), the TGI rises from 18.3 µM to over 100 µM.

For COc1cc2c(cc1OC)[C@H]1CN3CCC[C@H]3C=C1c1ccc(OC)c(O)c1-2, the TGI was 0.00509 µM and 0.0106 µM.
